Experimental data as given in ChEMBL document CHEMBL1275366, “Design, synthesis, and development of novel guaianolide-endoperoxides as potential antimalarial agents” (J Med Chem, 2010).
pIC50: −log10 of the molar value. Activity calls are given as the source filed them. The calls are words filed in the database; no cut-off is given here.

What was measured:
Plasmodium falciparum [1] = test: Antiplasmodial activity against chloroquine-resistant Plasmodium falciparum W2 infected in human erythrocytes assessed as reduction in parasitaemia after 48 hrs by FACS; format: functional, organism-based; conditions: W2, 48 h
Plasmodium falciparum [2] = test: Antiplasmodial activity against chloroquine-resistant Plasmodium falciparum W2 infected in human erythrocytes assessed as reduction in parasitaemia up to 10 uM after 48 hrs by FACS; format: functional, organism-based
Vero [3] = test: Cytotoxicity against african green monkey Vero cells at => 5000 ng/mL; format: cell-based; conditions: chlorocebus sabaeus
Vero [4] = test: Cytotoxicity against african green monkey Vero cells at 1200 ng/mL; format: cell-based; conditions: chlorocebus sabaeus

| SMILES | pIC50 (Plasmodium falciparum [1]) | also measured |
| --- | --- | --- |
| C[C@H]1C(=O)C[C@H]2[C@@H]1[C@H]1OC(=O)[C@H](C)[C@@]13CC[C@]2(C)OO3 | 6.57 |  |
| C[C@@H]1[C@H]2[C@@H](O)[C@@]3([C@@H](C)CO)C=C[C@](C)(OO3)[C@H]2C[C@@H]1O |  | inhibition (Plasmodium falciparum [2]): inactive |
| COc1ccc(CO[C@H]2C[C@H]3[C@@H]([C@H]2C)[C@H]2OC(=O)[C@H](C)[C@@]24CC[C@]3(C)OO4)cc1 | 6.43 | Activity (Vero [3]): Non-toxic |
| COc1ccc(CO[C@H]2C[C@H]3[C@@H]([C@H]2C)[C@H]2OC(=O)[C@H](C)[C@@]24C=C[C@]3(C)OO4)cc1 | 6.54 | Activity (Vero [3]): Non-toxic |
| C[C@@H]1[C@H]2[C@H]3OC(=O)[C@H](C)[C@@]34C=C[C@](C)(OO4)[C@H]2C[C@@H]1O | 5.98 |  |
| COc1ccc(CO[C@H]2C[C@H]3[C@@H]([C@H]2C)[C@H]2OC(O)[C@H](C)[C@@]24CC[C@]3(C)OO4)cc1 (some centres not stated) |  | inhibition (Plasmodium falciparum [2]): inactive |
| CCO[C@@H]1O[C@@H]2[C@@H]3[C@@H](C)[C@@H](OCc4ccc(OC)cc4)C[C@@H]3[C@]3(C)CC[C@]2(OO3)[C@H]1C | 5.47 |  |
| CC(=O)OC[C@H](C)[C@]12C=C[C@](C)(OO1)[C@H]1C[C@H](O)[C@H](C)[C@H]1[C@H]2O |  | inhibition (Plasmodium falciparum [2]): inactive |
| CCO[C@H]1O[C@@H]2[C@@H]3[C@@H](C)[C@@H](OCc4ccc(OC)cc4)C[C@@H]3[C@]3(C)CC[C@]2(OO3)[C@H]1C | 7.62 | Activity (Vero [3]): Non-toxic |
| COc1ccc(CO[C@H]2C[C@H]3[C@@H]([C@H]2C)[C@@H](O)[C@@]2([C@@H](C)CO)C=C[C@]3(C)OO2)cc1 | 5.04 |  |
| CCO[C@@H]1O[C@@H]2[C@@H]3[C@@H](C)[C@@H](OCc4ccc(OC)cc4)C[C@@H]3[C@]3(C)C=C[C@]2(OO3)[C@H]1C | 6.21 | Activity (Vero [3]): Non-toxic |
| COc1ccc(CO[C@H]2C[C@H]3[C@@H]([C@H]2C)[C@H]2OC(O)[C@H](C)[C@@]24C=C[C@]3(C)OO4)cc1 (some centres not stated) | 5.98 |  |
| COc1ccc(CO[C@H]2C[C@H]3[C@@H]([C@H]2C)[C@@H](O)[C@@]2([C@@H](C)COC(C)=O)C=C[C@]3(C)OO2)cc1 |  | inhibition (Plasmodium falciparum [2]): inactive |
| CC(=O)OC[C@H](C)[C@]12C=C[C@](C)(OO1)[C@H]1CC(=O)[C@H](C)[C@H]1C2=O | 5.34 |  |
| C/C=C(/C)C(=O)O[C@H]1C(C)=C2[C@H]([C@@H]1OC(=O)CCCCCCC)[C@@](C)(OC(C)=O)C[C@H](OC(=O)CCC)[C@@]1(O)[C@H]2OC(=O)[C@@]1(C)O [THAPSIGARGIN] |  | Activity (Vero [4]): Toxic |
| CCO[C@H]1O[C@@H]2[C@@H]3[C@@H](C)[C@@H](OCc4ccc(OC)cc4)C[C@@H]3[C@]3(C)C=C[C@]2(OO3)[C@H]1C | 7.89 | Activity (Vero [3]): Non-toxic |
| COc1ccc(CO[C@H]2C[C@H]3[C@@H]([C@H]2C)[C@H]2OC[C@H](C)[C@@]24C=C[C@]3(C)OO4)cc1 | 6.64 |  |
| C[C@@H]1CC[C@H]2[C@@H](C)C(=O)O[C@@H]3O[C@@]4(C)CC[C@@H]1[C@]32OO4 [ARTEMISININ] | 8.30 |  |
| C[C@@H]1[C@H]2[C@H]3OC[C@H](C)[C@@]34C=C[C@](C)(OO4)[C@H]2C[C@@H]1O | 6.24 |  |
| C[C@@H]1[C@H]2[C@H]3OC(=O)[C@H](C)[C@@]34CC[C@](C)(OO4)[C@H]2C[C@@H]1O | 6.21 |  |
| CC(=O)OC[C@H](C)[C@]12C=C[C@](C)(OO1)[C@H]1C[C@H](O)[C@H](C)[C@H]1C2=O |  | inhibition (Plasmodium falciparum [2]): inactive |
| COc1ccc(CO[C@H]2C[C@H]3[C@@H]([C@H]2C)[C@H]2OC[C@H](C)[C@@]24CC[C@]3(C)OO4)cc1 | 5.12 |  |
